From patent publication US20250313575A1, “MACROCYCLES AS LRRK2 INHIBITORS, PHARMACEUTICAL COMPOSITIONS, AND USES THEREOF” (Merck Sharp & Dohme LLC, priority 2022, published 2025)

target: GST-tagged truncated human mutant G2019S LRRK2 (Homo sapiens (Human), UniProt Q5S007, G2019S); assay: LRRK2 G2019S Km ATP LanthaScreen assay; format: biochemical; conditions: G2019S LRRK2, 134 μM ATP (Km ATP), LRRKtide substrate
Summary of the method: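 TR-FRET assay with GST-tagged truncated human G2019S LRRK2 (1.25 nM), preincubated with compound 15 min, then reacted with fluorescein-LRRKtide and 134 μM ATP (Km) in Tris pH 8.5 buffer, 90 min, ambient temperature. Tb-anti-phospho-LRRKtide detection, 520/495 nm ratio; IC50 by 4-parameter logistic fit, top concentration 9.99 μM in DMSO, 10 points.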

Sequence of GST-tagged truncated human mutant G2019S LRRK2 (Q5S007 970-2527 G2019S): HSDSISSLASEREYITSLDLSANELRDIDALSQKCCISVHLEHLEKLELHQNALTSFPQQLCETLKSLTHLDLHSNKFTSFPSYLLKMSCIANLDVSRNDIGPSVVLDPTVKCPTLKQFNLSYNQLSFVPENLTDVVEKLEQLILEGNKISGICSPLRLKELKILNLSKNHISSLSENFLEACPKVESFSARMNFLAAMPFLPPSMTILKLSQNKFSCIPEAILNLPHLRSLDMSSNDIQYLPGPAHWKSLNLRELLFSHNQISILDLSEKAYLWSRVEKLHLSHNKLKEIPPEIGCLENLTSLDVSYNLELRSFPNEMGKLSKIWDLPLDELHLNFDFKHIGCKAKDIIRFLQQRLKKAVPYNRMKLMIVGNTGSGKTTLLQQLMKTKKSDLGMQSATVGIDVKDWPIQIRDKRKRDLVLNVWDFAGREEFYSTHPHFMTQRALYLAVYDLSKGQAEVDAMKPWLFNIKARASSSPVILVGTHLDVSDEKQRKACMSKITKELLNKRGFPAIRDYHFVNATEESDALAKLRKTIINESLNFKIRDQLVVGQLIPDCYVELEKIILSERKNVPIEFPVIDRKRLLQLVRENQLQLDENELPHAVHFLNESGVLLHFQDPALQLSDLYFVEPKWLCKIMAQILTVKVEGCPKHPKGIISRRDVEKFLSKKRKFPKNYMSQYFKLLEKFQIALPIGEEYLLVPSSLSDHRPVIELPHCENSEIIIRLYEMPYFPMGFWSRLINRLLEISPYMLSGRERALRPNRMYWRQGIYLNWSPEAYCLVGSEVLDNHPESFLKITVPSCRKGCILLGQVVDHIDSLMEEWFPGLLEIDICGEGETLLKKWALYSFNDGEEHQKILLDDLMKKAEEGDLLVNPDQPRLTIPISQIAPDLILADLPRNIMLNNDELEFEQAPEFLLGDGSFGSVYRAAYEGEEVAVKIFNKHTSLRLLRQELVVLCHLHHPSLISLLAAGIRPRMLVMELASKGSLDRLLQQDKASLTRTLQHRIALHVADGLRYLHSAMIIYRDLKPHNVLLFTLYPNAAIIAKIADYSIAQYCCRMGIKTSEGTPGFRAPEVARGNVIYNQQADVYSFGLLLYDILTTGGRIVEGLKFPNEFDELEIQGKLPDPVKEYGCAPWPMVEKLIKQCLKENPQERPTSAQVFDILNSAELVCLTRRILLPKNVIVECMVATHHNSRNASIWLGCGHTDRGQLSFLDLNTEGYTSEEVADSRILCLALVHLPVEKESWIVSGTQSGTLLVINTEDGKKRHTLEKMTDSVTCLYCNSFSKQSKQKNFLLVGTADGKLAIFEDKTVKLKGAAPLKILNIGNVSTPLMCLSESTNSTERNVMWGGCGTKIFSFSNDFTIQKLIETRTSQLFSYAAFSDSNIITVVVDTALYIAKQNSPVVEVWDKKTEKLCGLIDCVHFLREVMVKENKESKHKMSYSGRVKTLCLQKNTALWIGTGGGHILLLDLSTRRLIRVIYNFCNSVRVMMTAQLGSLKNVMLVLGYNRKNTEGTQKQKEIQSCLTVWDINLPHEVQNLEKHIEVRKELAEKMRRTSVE

Compound	LRRK2 pIC50
Cc1nn(C2CCC2)c2c1OCC1CCCC1Nc1nc(ncc1C(F)(F)F)N2 [Ex-5.5, (10aR,13aR)- or (10aS,13aS)-3-cyclobutyl-1-methyl-8-(trifluoromethyl)-3,4,10a,11,12,13,13a,14-octahydro-10H-5,9-(azeno)cyclopenta[k]pyrazolo[4,3-b][1]oxa[4,6, 10]triazacyclotridecine]	10.06
Cn1cc(C2CC2c2nn(C3CCC3)c3c2OC[C@@H]2COC[C@H]2Nc2nc(ncc2C(F)(F)F)N3)cn1 (stereo partly drawn) [Ex-2.69, (10aS,13aS)-3-cyclobutyl-1-((1S,2S)- or (10aS,13aS)-3-cyclobutyl-1-((1R,2R)-2-(1-methyl-1H-pyrazol-4-yl)cyclopropyl)-8-(trifluoromethyl)-3,4,10a,11,13a,14-hexahydro-10H,13H-5,9-(azeno)furo[3,4-k]pyrazolo[4,3-b][1]oxa[4,6,10]triazacyclotridecine]	>10.09
Cc1nn(C2CC2)c2c1OC[C@H]1CC[C@@H]1Oc1nc(ncc1C(F)(F)F)N2 [Ex-14.2, (10aR,13aS)- or (10aS,13aR)-3-Cyclopropyl-1-methyl-8-(trifluoromethyl)-3,4,10a,11,12a,13-hexahydro-12H-5,9-(azeno)cyclobuta[k]pyrazolo[4,3-b][1,10]dioxa[4,6]diazacyclotridecine]	5.16
Cc1nn(C)c2c1OCC1(CC1)CNc1nc(ncc1C(F)(F)F)N2 [Ex-2.5, 1′,3′-dimethyl-10′-(trifluoromethyl)-1′,7′,8′,14′-tetrahydro-5′H-spiro[cyclopropane-1,6′-[9,13](azeno)pyrazolo[4,3-b][1]oxa[4,6,10]triazacyclotridecine]]	>10.09
Cc1nn(C2CC2)c2c1OC[C@@H]1CC[C@H]1Oc1nc(ncc1C(F)(F)F)N2 [Ex-14.1, (10aR,13aS)- or (10aS,13aR)-3-Cyclopropyl-1-methyl-8-(trifluoromethyl)-3,4,10a,11,12a,13-hexahydro-12H-5,9-(azeno)cyclobuta[k]pyrazolo[4,3-b][1,10]dioxa[4,6]diazacyclotridecine]	8.78
Cc1nn(C)c2c1OC[C@H]1CCC(C1)Nc1nc(ncc1C(F)(F)F)N2 [Ex-2.88, (5^1R,5^3S)-1^1,1^3-dimethyl-3^5-(trifluoromethyl)-1^1H-7-oxa-2,4-diaza-3(2,4)-pyrimidina-1(5,4)-pyrazola-5(1,3)-cyclopentanacycloheptaphane]	7.64
Cc1nn(C2CCC2)c2c1OC[C@@H]1CC(F)(F)C[C@H]1Nc1nc(ncc1C(F)(F)F)N2 [Ex-4.2, 3-Cyclobutyl-12,12-difluoro-1-methyl-8-(trifluoromethyl)-3,4,10a,11,12,13,13a,14-octahydro-10H-5,9-(azeno)cyclopenta[k]pyrazolo[4,3-b][1]oxa[4,6,10]triazacyclotridecine]	9.51
COc1cccc2c1Nc1ncc(Cl)c(n1)N[C@@H]1COC[C@H]1CO2 [Ex-15.2, (3aS,16aS)-6-chloro-11-methoxy-3a,4,16,16a-tetrahydro-1H,3H,10H-5,9-(azeno)benzo[b]furo[3,4-k][1]oxa[4,6,10]triazacyclotridecine]	9.65
Cc1nn(C2CCC2)c2c1OC[C@@H]1COC[C@H]1Nc1nc(ncc1C(F)(F)F)N2 [Ex-5.1, (10aS,13aS)-3-cyclobutyl-1-methyl-8-(trifluoromethyl)-3,4,10a,11,13a,14-hexahydro-10H,13H-5,9-(azeno)furo[3,4-k]pyrazolo[4,3-b][1]oxa[4,6,10]triazacyclotridecine]	>10.09
CC1CCOc2c(C(C)(C)C#N)nn(C3CCC3)c2Nc2ncc(C(F)(F)F)c(n2)N1 (single isomer, unassigned) [Ex-2.29, (R)- or (S)-butyl-7-methyl-10-(trifluoromethyl)-1,5,6,7,8,14-hexahydro-9,13-(azeno)pyrazolo[4,3-b][1]oxa[4,6,10]triazacyclotridecin-3-yl)-2-methylpropanenitrile]	5.70
C[C@@H]1CCOc2cn(C)nc2Nc2ncc(Cl)c(n2)N1 [Ex-18.1, (R)-10-chloro-2,7-dimethyl-2,5,6,7,8,14-hexahydro-9,13-(azeno)pyrazolo[4,3-b][1]oxa[4,6,10]triazacyclotridecine]	7.94
Cc1nn(C)c2c1OC[C@@H]1CCC(C1)Nc1nc(ncc1C(F)(F)F)N2 [Ex-2.87, (5^1S,5^3R)-1^1,1^3-dimethyl-3^5-(trifluoromethyl)-1^1H-7-oxa-2,4-diaza-3(2,4)-pyrimidina-1(5,4)-pyrazola-5(1,3)-cyclopentanacycloheptaphane]	6.84
COC1CCC1n1nc(C)c2c1Nc1ncc(C(F)(F)F)c(n1)NC1COCC1CO2 [Ex-2.40, (10aS,13aS)-3-((1R,2R)-(10aS,13aS)-3-((1S,2R)-(10aS,13aS)-3-((1R,2S)-(10aS,13aS)-3-((1R,2R)-(10aR,13aR)-3-((1S,2R)-(10aR,13aR)-3-((1R,2S)-2-methoxycyclobutyl)-1-methyl-8-(trifluoromethyl)-3,4,10a,11,13a,14-hexahydro-10H,13H-5,9-(azeno)furo[3,4-k]pyrazolo[4,3-b][1]oxa[4,6,10]triazacyclotridecine]	8.96
Cc1nn(C2CC2)c2c1O[C@@H]1CC[C@@H]1CNc1nc(ncc1C(F)(F)F)N2 [Ex-2.85, (11aR,13aR)- or (11aS,13aS)-3-cyclopropyl-1-methyl-8-(trifluoromethyl)-3,4,10,11,11a,12,13,13a-octahydro-5,9-(azeno)cyclobuta[I]pyrazolo[4,3-b][1]oxa[4,6,10]triazacyclotridecine]	8.74
Cc1nn(C2CCC2)c2c1OC[C@@H]1COC[C@H]1Nc1nc(ncc1F)N2 [Ex-2.66, (10aS,13aS)-3-cyclobutyl-8-fluoro-1-methyl-3,4,10a,11,13a,14-hexahydro-10H,13H-5,9-(azeno)furo[3,4-k]pyrazolo[4,3-b][1]oxa[4,6,10]triazacyclotridecine]	8.43
Cn1nc(C2CC2)c2c1OCC1CCC1Nc1nc(ncc1C(F)(F)F)N2 [Ex-1.10, (10aR,12aR)- or (10aS,12aS)-3-cyclopropyl-1-methyl-8-(trifluoromethyl)-1,4,10,10a,11,12,12a,13-octahydro-5,9-(azeno)cyclobuta[k]pyrazolo-[3,4-b][1]oxa[4,6,10]triazacyclo-tridecine]	6.58
CC(C)(C#N)n1nc(C2CC2)c2c1OC[C@@H]1CC[C@H]1Nc1nc(ncc1C(F)(F)F)N2 [Ex-1.17, 2-((10aR,12aR)-3-cyclopropyl-8-(trifluoromethyl)-10,10a,11,12,12a,13-hexahydro-5,9-(azeno)cyclobuta[k]pyrazolo[3,4-b][1]oxa[4,6,10]triazacyclotridecin-1(4H)-yl)-2-methylpropanenitrile]	>10.09
(10aR,12aR)-8-chloro-3-methyl-1- (trifluoromethyl)-3,4,10,10a,11,12,12a,13- octahydro-5,9- (azeno)cyclobuta[k]pyrazolo[4,3- b][1]oxa[4,6,10]triazacyclotridecine [Ex-2.76]	9.47
Cn1nc(C2CC2)c2c1OCC1CCC1Nc1nc(ncc1C(F)(F)F)N2 [Ex-1.9, (10aR,12aS)- or (10aS,12aR)-3-cyclopropyl-1-methyl-8-(trifluoromethyl)-1,4,10,10a,11,12,12a,13-octahydro-5,9-(azeno)cyclobuta[k]pyrazolo-[3,4-b][1]oxa[4,6,10]triazacyclo-tridecine]	>10.09
Cc1nn(C)c2c1OC[C@H]1COC[C@H]1Nc1nc(ncc1C(F)(F)F)N2 [Ex-2.24, (10aS,13aR)- or (10aR,13aS)-1,3-dimethyl-8-(trifluoromethyl)-3,4,10a,11,13a,14-hexahydro-10H,13H-5,9-(azeno)furo[3,4-k]pyrazolo[4,3-b][1]oxa[4,6,10]triazacyclotridecine]	6.05
FC(F)(F)c1cnc2nc1NC1CCC1COc1c(C3CCOC3)nn(C3CCC3)c1N2 [Ex-2.65, (10aR,12aR)-3-cyclobutyl-1-((R)-(10aR,12aR)-3-cyclobutyl-1-((S)-(10aS,12aS)-3-cyclobutyl-1-((R)-(10aS,12aS)-3-cyclobutyl-1-((S)-tetrahydrofuran-3-yl)-8-(trifluoromethyl)-3,4,10,10a,11,12,12a,13-octahydro-5,9-(azeno)cyclobuta[k]pyrazolo[4,3-b][1]oxa[4,6,10]triazacyclotridecine]	6.59
Cn1nc(C2CC2)c2c1OCC1CCC1Nc1nc(ncc1C(F)(F)F)N2 [Ex-1.11, (10aR,12aR)- or (10aS,12aS)-3-cyclopropyl-1-methyl-8-(trifluoromethyl)-1,4,10,10a,11,12,- 12a,13-octahydro-5,9-(azeno)cyclobuta[k]pyrazolo[3,4-b][1]oxa[4,6,10]triazacyclotridecine]	>10.09
Cc1nn(C2CCC2)c2c1OC1COC[C@H]1CNc1nc(ncc1C(F)(F)F)N2 (stereo partly drawn) [Ex-2.79, (11aR,14aR)-3-cyclobutyl-1-methyl-8-(trifluoromethyl)-3,4,10,11,11a,12,14,14a-octahydro-5,9-(azeno)furo[3,4-1]pyrazolo [4,3-b][1]oxa[4,6,10]triazacyclotridecine (11aS,14aS)-3-cyclobutyl-1-methyl-8-(trifluoromethyl)-3,4,10,11,11a,12,14,14a-octahydro-5,9-(azeno)furo[3,4-1]pyrazolo[4,3-b][1]oxa[4,6,10]triazacyclotridecine]	6.87

same assay, conditions: G2019S LRRK2, 134 μM ATP (Km ATP), LRRKtide substrate; read-out: LRRK2 pIC50 (converted)

Compound	IC50 [nM]
Cc1nn(C2CCC2)c2c1OCC[C@@H]1COCCN1c1nc(ncc1C(F)(F)F)N2 (single isomer, unassigned) [Ex-21.3, (R) or (S)-3-cyclobutyl-1-methyl-8-(trifluoromethyl)-3,4,11,12,14,14a,15,16-octahydro-5,9-(azeno)[1,4]oxazino[4,3-j]pyrazolo[4,3-b][1]oxa[4,6,10]triazacyclotridecine]	22.9
